PubChem BioAssay AID2083 (Sanford-Burnham Center for Chemical Genomics, 2009)

Each compound was assayed against Dual specificity protein phosphatase 1 (Homo sapiens) (UniProt P28562) (assay: inhibitors of DUSP1 phosphatase activity – biochemical, DiFMUP, fluorescence, selectivity assay for VHR1 inhibitor project, SAR follow-up (AID 2083)). Details: recombinant MKP-1, DiFMUP fluorescence.
Chain of Dual specificity protein phosphatase 1 (Homo sapiens) (P28562 whole entry, looked up): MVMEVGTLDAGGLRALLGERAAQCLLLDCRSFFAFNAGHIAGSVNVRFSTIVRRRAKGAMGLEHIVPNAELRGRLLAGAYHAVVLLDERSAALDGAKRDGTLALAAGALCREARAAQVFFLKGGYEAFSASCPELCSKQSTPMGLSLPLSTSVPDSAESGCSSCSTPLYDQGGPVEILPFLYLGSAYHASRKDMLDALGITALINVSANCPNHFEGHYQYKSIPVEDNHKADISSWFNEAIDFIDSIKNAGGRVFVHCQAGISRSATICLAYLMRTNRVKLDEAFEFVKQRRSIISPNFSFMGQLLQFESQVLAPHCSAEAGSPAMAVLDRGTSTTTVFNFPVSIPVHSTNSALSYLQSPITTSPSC

Row | Structure (SMILES) | IC50
1 | O=C1/C(=C/c2cn(-c3ccccc3)nc2-c2ccc(OCc3ccc(Cl)cc3)cc2)SC(=S)N1CCS(=O)(=O)O | 460 nM
2 | O=C1/C(=C/c2cn(-c3ccccc3)nc2-c2ccc(OCc3ccccc3Cl)cc2)SC(=S)N1CCS(=O)(=O)O | 470 nM
3 | O=C1/C(=C/c2cn(-c3ccccc3)nc2-c2ccc(OCc3ccccc3)cc2)SC(=S)N1CCS(=O)(=O)O | 780 nM
4 | O=C1/C(=C/c2cn(-c3ccccc3)nc2-c2ccc(OCc3ccccc3F)cc2)SC(=S)N1CCS(=O)(=O)O | 520 nM
5 | O=C1/C(=C/c2cn(-c3ccccc3)nc2-c2ccc(S(=O)(=O)N3CCCCC3)cc2)SC(=S)N1CCS(=O)(=O)O | 2800 nM
